Assay results: ChEMBL document CHEMBL5380860, “Design, Synthesis, and Antitumor Activity of Potent and Selective EGFR L858R/T790M Inhibitors and Identification of a Combination Therapy to Overcome Acquired Resistance in Models of Non-small-cell Lung Cancer” (J Med Chem, 2023)

Experiments:
[1] = Cytotoxicity against human A549 cells harboring wild type EGFR assessed as reduction in cell viability measured after 72 hrs by MTT assay; assay type: toxicity, cell-based
NCI-H1975 = assay: Antiproliferative activity against human NCI-H1975 cells harboring EGFR L858R/T790M mutant assessed as reduction in cell viability measured after 72 hrs by MTT assay; assay type: functional, cell-based; settings: NCI-H1975, 72 h
[2] = molecular target: Epidermal growth factor receptor (Homo sapiens, UniProt P00533, L858R/T790M); assay: Inhibition of human partial length EGFR (R669 to V1011 residues) L858R/T790M mutant expressed in mammalian expression system by KINOMEscan analysis
Sequence of Epidermal growth factor receptor (Homo sapiens, UniProt P00533, L858R/T790M) (P00533 25-1210 T790M/L858R limits assumed): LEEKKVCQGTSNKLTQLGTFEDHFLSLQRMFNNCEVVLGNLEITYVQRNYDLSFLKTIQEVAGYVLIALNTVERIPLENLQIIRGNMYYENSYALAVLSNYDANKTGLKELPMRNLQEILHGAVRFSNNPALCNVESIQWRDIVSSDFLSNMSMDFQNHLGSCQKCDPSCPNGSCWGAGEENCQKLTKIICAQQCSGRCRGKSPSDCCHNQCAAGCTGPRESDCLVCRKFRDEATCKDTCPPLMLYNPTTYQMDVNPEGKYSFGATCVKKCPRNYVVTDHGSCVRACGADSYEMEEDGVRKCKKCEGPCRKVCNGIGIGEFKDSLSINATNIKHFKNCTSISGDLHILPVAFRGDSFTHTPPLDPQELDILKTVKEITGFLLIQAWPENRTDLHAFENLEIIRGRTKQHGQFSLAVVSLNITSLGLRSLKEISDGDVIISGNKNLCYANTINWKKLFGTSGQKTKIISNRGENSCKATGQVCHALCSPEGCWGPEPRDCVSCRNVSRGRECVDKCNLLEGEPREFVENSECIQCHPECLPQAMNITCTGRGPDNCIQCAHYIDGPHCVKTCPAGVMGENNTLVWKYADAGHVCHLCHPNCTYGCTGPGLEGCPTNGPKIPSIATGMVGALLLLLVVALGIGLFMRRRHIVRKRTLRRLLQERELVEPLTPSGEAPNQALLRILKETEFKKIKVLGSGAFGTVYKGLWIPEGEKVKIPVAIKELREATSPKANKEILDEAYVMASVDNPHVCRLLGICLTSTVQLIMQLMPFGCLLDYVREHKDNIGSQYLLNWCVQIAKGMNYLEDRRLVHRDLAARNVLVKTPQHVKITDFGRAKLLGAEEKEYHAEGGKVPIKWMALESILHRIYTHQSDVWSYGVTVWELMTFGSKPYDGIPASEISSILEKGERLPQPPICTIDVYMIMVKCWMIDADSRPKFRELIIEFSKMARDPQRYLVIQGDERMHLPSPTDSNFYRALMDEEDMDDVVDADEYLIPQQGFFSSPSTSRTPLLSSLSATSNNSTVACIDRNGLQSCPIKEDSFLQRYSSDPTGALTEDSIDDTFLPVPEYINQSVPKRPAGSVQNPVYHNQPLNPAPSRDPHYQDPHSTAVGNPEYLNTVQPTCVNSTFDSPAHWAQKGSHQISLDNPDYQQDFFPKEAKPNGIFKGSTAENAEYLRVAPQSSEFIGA

[3] = molecular target: Epidermal growth factor receptor (Homo sapiens, UniProt P00533); assay: Inhibition of human wild type partial length EGFR (R669 to V1011 residues) expressed in bacterial expression system by KINOMEscan analysis; assay type: toxicity
Sequence of Epidermal growth factor receptor (Homo sapiens, UniProt P00533) (P00533 whole entry, the tested form may be a part): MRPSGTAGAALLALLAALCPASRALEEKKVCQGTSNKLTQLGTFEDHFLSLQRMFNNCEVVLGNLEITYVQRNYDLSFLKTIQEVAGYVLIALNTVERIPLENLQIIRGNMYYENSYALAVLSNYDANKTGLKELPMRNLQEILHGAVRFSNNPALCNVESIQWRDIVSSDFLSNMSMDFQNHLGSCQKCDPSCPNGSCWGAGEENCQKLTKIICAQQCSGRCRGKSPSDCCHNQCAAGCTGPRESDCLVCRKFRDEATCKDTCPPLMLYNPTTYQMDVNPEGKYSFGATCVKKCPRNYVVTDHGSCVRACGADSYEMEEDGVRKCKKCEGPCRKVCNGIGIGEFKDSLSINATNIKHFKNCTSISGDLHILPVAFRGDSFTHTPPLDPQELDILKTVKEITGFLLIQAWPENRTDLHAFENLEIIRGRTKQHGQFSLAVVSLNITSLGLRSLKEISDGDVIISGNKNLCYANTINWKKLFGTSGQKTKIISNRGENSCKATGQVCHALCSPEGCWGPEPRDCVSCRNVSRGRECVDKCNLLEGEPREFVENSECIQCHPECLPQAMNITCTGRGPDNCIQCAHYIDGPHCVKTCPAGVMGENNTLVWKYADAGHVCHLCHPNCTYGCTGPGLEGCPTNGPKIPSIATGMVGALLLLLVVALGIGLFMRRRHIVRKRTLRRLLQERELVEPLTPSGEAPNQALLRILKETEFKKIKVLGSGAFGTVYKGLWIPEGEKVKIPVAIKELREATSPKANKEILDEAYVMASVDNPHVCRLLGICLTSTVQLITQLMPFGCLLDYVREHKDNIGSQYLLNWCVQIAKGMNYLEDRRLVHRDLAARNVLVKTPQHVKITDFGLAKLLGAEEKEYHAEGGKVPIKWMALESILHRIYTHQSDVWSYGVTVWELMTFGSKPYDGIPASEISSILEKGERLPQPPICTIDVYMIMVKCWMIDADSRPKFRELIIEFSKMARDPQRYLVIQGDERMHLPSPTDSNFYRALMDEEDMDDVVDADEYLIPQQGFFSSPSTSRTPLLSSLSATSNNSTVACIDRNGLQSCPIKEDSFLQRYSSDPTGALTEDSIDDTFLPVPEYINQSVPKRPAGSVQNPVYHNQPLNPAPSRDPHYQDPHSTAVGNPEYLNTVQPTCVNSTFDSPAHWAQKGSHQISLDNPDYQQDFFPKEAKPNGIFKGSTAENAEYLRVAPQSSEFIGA

[4] = Selectivity ratio of IC50 for cytotoxicity against human A-431 cells harboring wild type EGFR to IC50 for antiproliferative activity against human NCI-H1975 cells harboring EGFR L858R/T790M mutant; assay type: toxicity, cell-based; settings: read-out: Ratio IC50
[5] = Cytotoxicity against human A-431 cells harboring wild type EGFR assessed as reduction in cell viability measured after 72 hrs by MTT assay; assay type: toxicity, cell-based
HCC827 = assay: Antiproliferative activity against human HCC827 cells harboring EGFR exon del 19 mutant assessed as reduction in cell viability measured after 72 hrs by MTT assay; assay type: functional, cell-based; settings: HCC827, 72 h
[6] = Selectivity ratio of IC50 for cytotoxicity against human A549 cells harboring wild type EGFR to IC50 for antiproliferative activity against human NCI-H1975 cells harboring EGFR L858R/T790M mutant; assay type: toxicity, cell-based; settings: read-out: Ratio IC50

SMILES | IC50 (NCI-H1975) | IC50 [2] | IC50 (HCC827) | IC50 at 72 h [1] | IC50 [3] | selectivity ratio [4] | IC50 at 72 h [5] | selectivity ratio [6]
C=CC(=O)Nc1cccc(Nc2nc(Nc3ccc(N4CCN(CC)CC4)cc3)nc3ccc(F)cc23)c1 | 25 nM |  | 11 nM | 1520 nM |  | 62 | 1550 nM | 60
C=CC(=O)Nc1cccc(Nc2nc(Nc3ccc(N4CCN(CC)CC4)cc3)nc3ccc(Cl)cc23)c1 | 21 nM |  | 12 nM | 672 nM |  | 35 | 735 nM | 32
C=CC(=O)Nc1cccc(Nc2nc(Nc3ccc(N4CCN(C)CC4)cc3)nc3ccc(Cl)cc23)c1 | 17 nM |  | 13 nM | 816 nM |  | 73 | 1240 nM | 48
C=CC(=O)Nc1cccc(Nc2nc(Nc3ccc(N4CCN(C)CC4)c(F)c3)nc3ccc(Cl)cc23)c1 | 45 nM |  | 19 nM | 1500 nM |  |  | 2310 nM | 
C=CS(=O)(=O)Nc1cccc(Nc2nc(Nc3ccc(N4CCN(C)CC4)cc3)nc3ccc(Cl)cc23)c1 | 1030 nM |  | 1490 nM | > 10000 nM |  |  | 8770 nM | 
C=CC(=O)Nc1cccc(Nc2nc(Nc3ccc(N4CCN(C)CC4)cc3OC)nc3ccc(F)cc23)c1 | 234 nM |  | 98 nM | 1520 nM |  |  | 3250 nM | 
C=CC(=O)Nc1cccc(Nc2nc(Nc3ccc(N4CCN(C)CC4)cc3)nc3cccc(F)c23)c1 | 1000 nM |  | 784 nM | 2310 nM |  |  | 1840 nM | 
C=CC(=O)Nc1cccc(Nc2nc(Nc3ccc(N4CCC(N5CCN(C)CC5)CC4)cc3)nc3ccc(F)cc23)c1 | 24 nM |  | 18 nM | 1520 nM |  |  | 1680 nM | 
C=CC(=O)Nc1cccc(Nc2nc(Nc3ccc(N4CCC(N5CCOCC5)CC4)cc3)nc3ccc(F)cc23)c1 | 1600 nM |  | 2300 nM | 5900 nM |  |  | 7590 nM | 

Continued, in another order:

IC50 (NCI-H1975) | IC50 [2] | IC50 (HCC827) | SMILES | IC50 at 72 h [1] | IC50 [3] | selectivity ratio [4] | IC50 at 72 h [5] | selectivity ratio [6]
2300 nM | 1800 nM |  | C=CC(=O)Nc1cccc(Nc2nc(Nc3ccc(N(C)C)cc3)nc3ccc(Cl)cc23)c1 | > 10000 nM | > 10000 nM |  |  | 
35 nM |  | 20 nM | C=CC(=O)Nc1cccc(Nc2nc(Nc3ccc(N4CCN(C)CC4)c(F)c3)nc3ccc(F)cc23)c1 | 2470 nM |  |  | 1280 nM | 
5240 nM |  | 4590 nM | C=CC(=O)Nc1cccc(Nc2nc(Nc3ccc(N4CCC(N5CCOCC5)CC4)cc3OC)nc3ccc(Cl)cc23)c1 | > 10000 nM |  |  | > 10000 nM | 
4760 nM |  | 4680 nM | C=CC(=O)Nc1cccc(Nc2nc(Nc3ccc(N4CCN(C)CC4)cc3)nc3ccc(C(F)(F)F)cc23)c1 | > 10000 nM |  |  | 7640 nM | 
4620 nM |  | 3930 nM | C=CC(=O)Nc1cccc(Nc2nc(Nc3ccc(N4CCC(N5CCOCC5)CC4)cc3OC)nc3ccc(F)cc23)c1 | > 10000 nM |  |  | > 10000 nM | 
5760 nM |  | 4590 nM | C=CC(=O)Nc1cccc(Nc2nc(Nc3ccc(N4CCN(C)CC4)cc3)nc3ccc(I)cc23)c1 | > 10000 nM |  |  | > 10000 nM | 
7330 nM |  | 6480 nM | CCC(=O)Nc1cccc(Nc2nc(Nc3ccc(N4CCN(C)CC4)cc3)nc3ccc(Cl)cc23)c1 | > 10000 nM |  |  | > 10000 nM | 
6360 nM |  | 3700 nM | C=CC(=O)Nc1cccc(Nc2nc(Nc3ccc(N4CCN(C)CC4)cc3)nc3ccc([N+](=O)[O-])cc23)c1 | > 10000 nM |  |  | > 10000 nM | 
8750 nM |  | 6580 nM | C=CC(=O)Nc1cccc(Nc2nc(Nc3ccc(N(C)CCN(C)C)cc3OC)nc3ccc(F)cc23)c1 | > 10000 nM |  |  | > 10000 nM | 
